Assay results: ChEMBL document CHEMBL2407067, “Pyridone-conjugated monobactam antibiotics with gram-negative activity” (J Med Chem, 2013)
In brackets after ≈: the same amount, converted by molar mass.

How the values were obtained:
[1] = system: Pseudomonas aeruginosa; assay: Antibacterial activity against Pseudomonas aeruginosa from cystic fibrosis patients by broth microdilution method; assay type: functional
[2] = system: Acinetobacter sp.; assay: Antibacterial activity against Acinetobacter spp. by broth microdilution method; assay type: functional
[3] = system: Escherichia coli; assay: Antibacterial activity against Escherichia coli expressing defined beta-lactamase by broth microdilution method; assay type: functional
[4] = system: Escherichia coli; assay: Antibacterial activity against Escherichia coli expressing CTX-M by broth microdilution method; assay type: functional
[5] = system: Escherichia coli; assay: Antibacterial activity against Escherichia coli expressing ESBL by broth microdilution method; assay type: functional
[6] = system: Klebsiella pneumoniae; assay: Antibacterial activity against Klebsiella pneumoniae expressing KPC by broth microdilution method; assay type: functional
[7] = system: Klebsiella pneumoniae; assay: Antibacterial activity against Klebsiella pneumoniae expressing ESBL by broth microdilution method; assay type: functional
[8] = system: Klebsiella pneumoniae; assay: Antibacterial activity against Klebsiella pneumoniae expressing defined beta-lactamase by broth microdilution method; assay type: functional
[9] = system: Pseudomonas aeruginosa; assay: Antibacterial activity against Pseudomonas aeruginosa expressing metallo-beta-lactamase by broth microdilution method; assay type: functional
[10] = system: Acinetobacter baumannii; assay: Antibacterial activity against Acinetobacter baumannii AB-3167 by broth microdilution method; assay type: functional
[11] = system: Klebsiella pneumoniae; assay: Antibacterial activity against Klebsiella pneumoniae 1487-07 by broth microdilution method; assay type: functional
[12] = system: Pseudomonas aeruginosa; assay: Antibacterial activity against Pseudomonas aeruginosa 1042-06 by broth microdilution method; assay type: functional
[13] = system: Pseudomonas aeruginosa; assay: microbe, parasite or virus in culture; conditions: 1091-05
Description: Antibacterial activity against Pseudomonas aeruginosa 1091-05 by broth microdilution method

[14] = system: Rattus norvegicus; assay: Intrinsic clearance in Wistar Han rat at 1 mg/kg, iv by LC/MS/MS analysis; assay type: ADME, organism-based; design: dose 1 mg/kg, route intravenous; conditions: in vivo
[15] = Fraction unbound in mouse plasma; assay type: ADME, cell-free
[16] = Plasma clearance in Wistar Han rat at 1 mg/kg, iv by LC/MS/MS analysis; assay type: ADME, organism-based; design: dose 1 mg/kg, route intravenous
[17] = Fraction unbound in rat plasma; assay type: ADME, cell-free
[18] = Fraction unbound in human plasma; assay type: ADME, cell-free
[19] = system: Pseudomonas aeruginosa; assay: Ratio of MIC for PiuA/PirA receptor-deficient Pseudomonas aeruginosa PAO1 to MIC for Pseudomonas aeruginosa PAO1 in iron-chelated Muller-Hinton broth medium by broth microdilution method; assay type: functional
[20] = system: Pseudomonas aeruginosa; assay: Ratio of MIC for PiuA/PirA receptor-deficient Pseudomonas aeruginosa PAO1 to MIC for Pseudomonas aeruginosa PAO1 in Muller-Hinton broth medium by broth microdilution method; assay type: functional
[21] = system: Pseudomonas aeruginosa; assay: Ratio of MIC for PiuA receptor-deficient Pseudomonas aeruginosa PAO1 to MIC for Pseudomonas aeruginosa PAO1 in Muller-Hinton broth medium by broth microdilution method; assay type: functional
[22] = system: Pseudomonas aeruginosa; assay: Antibacterial activity against PiuA/PirA receptor-deficient Pseudomonas aeruginosa PAO1 in iron-chelated Muller-Hinton broth medium by broth microdilution method; assay type: functional
[23] = system: Pseudomonas aeruginosa; assay: Antibacterial activity against PiuA/PirA receptor-deficient Pseudomonas aeruginosa PAO1 in Muller-Hinton broth medium by broth microdilution method; assay type: functional
[24] = system: Pseudomonas aeruginosa; assay: Antibacterial activity against PiuA/FptA receptor-deficient Pseudomonas aeruginosa PAO1 in iron-chelated Muller-Hinton broth medium by broth microdilution method; assay type: functional
[25] = system: Pseudomonas aeruginosa; assay: Antibacterial activity against PiuA/FptA receptor-deficient Pseudomonas aeruginosa PAO1 in Muller-Hinton broth medium by broth microdilution method; assay type: functional
[26] = system: Pseudomonas aeruginosa; assay: Antibacterial activity against PiuA/FpvA receptor-deficient Pseudomonas aeruginosa PAO1 in iron-chelated Muller-Hinton broth medium by broth microdilution method; assay type: functional
[27] = system: Pseudomonas aeruginosa; assay: Antibacterial activity against PiuA/FpvA receptor-deficient Pseudomonas aeruginosa PAO1 in Muller-Hinton broth medium by broth microdilution method; assay type: functional
[28] = system: Pseudomonas aeruginosa; assay: Antibacterial activity against FptA receptor-deficient Pseudomonas aeruginosa PAO1 in iron-chelated Muller-Hinton broth medium by broth microdilution method; assay type: functional
[29] = system: Pseudomonas aeruginosa; assay: Antibacterial activity against FptA receptor-deficient Pseudomonas aeruginosa PAO1 in Muller-Hinton broth medium by broth microdilution method; assay type: functional
[30] = system: Pseudomonas aeruginosa; assay: Antibacterial activity against FpvA receptor-deficient Pseudomonas aeruginosa PAO1 in iron-chelated Muller-Hinton broth medium by broth microdilution method; assay type: functional
[31] = system: Pseudomonas aeruginosa; assay: Antibacterial activity against FpvA receptor-deficient Pseudomonas aeruginosa PAO1 in Muller-Hinton broth medium by broth microdilution method; assay type: functional
[32] = system: Pseudomonas aeruginosa; assay: Antibacterial activity against PirA receptor-deficient Pseudomonas aeruginosa PAO1 in iron-chelated Muller-Hinton broth medium by broth microdilution method; assay type: functional
[33] = system: Pseudomonas aeruginosa; assay: Antibacterial activity against PirA receptor-deficient Pseudomonas aeruginosa PAO1 in Muller-Hinton broth medium by broth microdilution method; assay type: functional
[34] = system: Pseudomonas aeruginosa; assay: Antibacterial activity against PiuA receptor-deficient Pseudomonas aeruginosa PAO1 in iron-chelated Muller-Hinton broth medium by broth microdilution method; assay type: functional
[35] = system: Pseudomonas aeruginosa; assay: Antibacterial activity against PiuA receptor-deficient Pseudomonas aeruginosa PAO1 in Muller-Hinton broth medium by broth microdilution method; assay type: functional
[36] = system: Pseudomonas aeruginosa; assay: Antibacterial activity against Pseudomonas aeruginosa PAO1 in iron-chelated Muller-Hinton broth medium by broth microdilution method; assay type: functional
[37] = system: Pseudomonas aeruginosa; assay: Antibacterial activity against Pseudomonas aeruginosa PAO1 in Muller-Hinton broth medium by broth microdilution method; assay type: functional
[38] = system: Klebsiella pneumoniae; assay: Antibacterial activity against Klebsiella pneumoniae 1000-02 by broth microdilution method; assay type: functional
[39] = Inhibition of PBP3 in Pseudomonas aeruginosa ATCC 27853 after 20 mins by fluorescence assay
[40] = Inhibition of PBP2 in Pseudomonas aeruginosa ATCC 27853 after 20 mins by fluorescence assay
[41] = Inhibition of PBP1b in Pseudomonas aeruginosa ATCC 27853 after 20 mins by fluorescence assay
[42] = Inhibition of PBP1a in Pseudomonas aeruginosa ATCC 27853 after 20 mins by fluorescence assay

SMILES | MIC [10] [µg/mL] | MIC [11] [µg/mL] | MIC [12] [µg/mL] | MIC [13] [µg/mL] | MIC [22] [µg/mL] | MIC [23] [µg/mL] | MIC [24] [µg/mL] | MIC [25] [µg/mL] | MIC [26] [µg/mL] | MIC [27] [µg/mL] | MIC [28] [µg/mL] | MIC [29] [µg/mL] | MIC [30] [µg/mL] | MIC [31] [µg/mL] | MIC [32] [µg/mL] | MIC [33] [µg/mL] | MIC [34] [µg/mL] | Ratio [19] | Ratio [20] | Ratio [21] | other results
NCC[C@H](O)C(=O)N[C@@H]1C[C@H](N)[C@@H](O[C@H]2O[C@H](CN)[C@@H](O)[C@H](O)[C@H]2O)[C@H](O)[C@H]1O[C@H]1O[C@H](CO)[C@@H](O)[C@H](N)[C@H]1O [AMIKACIN] | 1 (≈ 1.71 µM) | 64 (≈ 109 µM) | 8 (≈ 13.7 µM) | 2 (≈ 3.42 µM) |  |  |  |  |  |  |  |  |  |  |  |  |  |  |  |  | MIC50 [1]: 8 µg/mL (≈ 13.7 µM); MIC90 [1]: > 64 µg/mL; MIC50 [2]: 4 µg/mL (≈ 6.83 µM); MIC90 [2]: > 64 µg/mL; MIC50 [3]: 1 µg/mL (≈ 1.71 µM); MIC90 [3]: 16 µg/mL (≈ 27.3 µM); MIC50 [4]: 8 µg/mL (≈ 13.7 µM); MIC90 [4]: 32 µg/mL (≈ 54.6 µM); MIC50 [5]: 8 µg/mL (≈ 13.7 µM); MIC90 [5]: 64 µg/mL (≈ 109 µM); MIC50 [6]: 32 µg/mL (≈ 54.6 µM); MIC90 [6]: > 64 µg/mL; MIC50 [7]: 4 µg/mL (≈ 6.83 µM); MIC90 [7]: 64 µg/mL (≈ 109 µM); MIC50 [8]: 4 µg/mL (≈ 6.83 µM); MIC90 [8]: > 64 µg/mL; MIC50 [9]: > 64 µg/mL; MIC90 [9]: > 64 µg/mL
CC(C)(O/N=C(\C(=O)N[C@@H]1C(=O)N(S(=O)(=O)O)[C@@H]1Cn1cc(COCc2cc(=O)c(O)cn2O)nn1)c1csc(N)n1)C(=O)O | 0.25 (≈ 0.372 µM) |  | 1 (≈ 1.49 µM) | 0.25 (≈ 0.372 µM) |  |  |  |  |  |  |  |  |  |  |  |  |  |  |  |  | CL [14]: 94 mL/min/kg; fraction unbound [15]: 0.8; clearance [16]: 31.3 mL/min/kg; fraction unbound [17]: 0.6; fraction unbound [18]: 0.5
CC(C)(O/N=C(\C(=O)N[C@@H]1C(=O)N(S(=O)(=O)[O-])[C@@H]1CNC(=O)c1cc(-c2cc(=O)c(O)cn2O)no1)c1csc(N)n1)C(=O)[O-].[Na+].[Na+] | 0.125 |  | 0.25 | 0.25 | 16 | 32 | 1 | 8 | 0.5 | 8 | 0.25 | 0.25 | 0.125 | 0.125 | 0.25 | 0.25 | 1 | >=64 | >=64 | 32 | IC50 [39]: 6 nM; IC50 [40]: > 300000 nM; IC50 [41]: 150 nM; IC50 [42]: 110 nM; MIC [35]: 8 µg/mL; MIC [36]: 0.25 µg/mL; MIC [37]: 0.25 µg/mL; MIC [38]: 1 µg/mL

Further compounds by falling MIC [10], results first:

MIC [10] [µg/mL] | MIC [11] [µg/mL] | MIC [12] [µg/mL] | MIC [13] [µg/mL] | MIC [22] [µg/mL] | MIC [23] [µg/mL] | MIC [24] [µg/mL] | MIC [25] [µg/mL] | MIC [26] [µg/mL] | MIC [27] [µg/mL] | MIC [28] [µg/mL] | MIC [29] [µg/mL] | MIC [30] [µg/mL] | MIC [31] [µg/mL] | MIC [32] [µg/mL] | MIC [33] [µg/mL] | MIC [34] [µg/mL] | SMILES | Ratio [19] | Ratio [20] | Ratio [21] | other results
0.5 | 0.25 | 0.5 | 0.5 | 64 | 64 | 0.5 | 8 | 1 | 16 | 0.5 | 0.5 | 0.5 | 1 | 0.5 | 0.5 | 0.5 | CC(C)(O/N=C(\C(=O)N[C@@H]1C(=O)N(S(=O)(=O)[O-])[C@@H]1CNC(=O)c1cc(=O)c(O)cn1O)c1csc(N)n1)C(=O)[O-].[Na+].[Na+] | >=64 | >=64 | 16 | MIC [35]: 8 µg/mL; MIC [36]: 0.5 µg/mL; MIC [37]: 0.5 µg/mL; MIC [38]: < 0.06 µg/mL
0.125 (≈ 0.194 µM) | 0.5 (≈ 0.776 µM) | 1 (≈ 1.55 µM) |  |  |  |  |  |  |  |  |  |  |  |  |  |  | Nc1nc(/C(=N/OC2(C(=O)O)CCC2)C(=O)N[C@@H]2C(=O)N(S(=O)(=O)O)[C@@H]2CNC(=O)NCc2cc(=O)c(O)cn2O)cs1 |  |  |  | IC50 [39]: 66 nM; IC50 [40]: > 300000 nM; IC50 [41]: 2460 nM; IC50 [42]: 340 nM
